Test results: the supplement of paper PMC10307832

How the values were obtained:
Assay in all cases: relative viability (nuclei count vs DMSO), 5 days (fraction); higher = more cells survive
Dabrafenib + Luminespib = compound: CC(C)(C)c1nc(-c2cccc(NS(=O)(=O)c3c(F)cccc3F)c2F)c(-c2ccnc(N)n2)s1 [Dabrafenib] + CCNC(=O)c1noc(-c2cc(C(C)C)c(O)cc2O)c1-c1ccc(CN2CCOCC2)cc1 [Luminespib] (partner 0.01 µM)
Method in brief: (§1)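 Relative viability divides the nuclei count in treated wells by that in vehicle wells. Lung cancer cell lines were seeded in 1536-well plates, dosed by pin tool the next day, and fixed and stained after 5 days in one step with final 0.05% Triton X-100, 1% formaldehyde and 1 ug/ml Hoechst. Dosing was a single drug or a fixed anchor-drug dose plus five library-drug doses (not always all listed) in √10 steps, and values are medians of duplicate plates imaged at 4×.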

Dabrafenib + Olaparib = compound: CC(C)(C)c1nc(-c2cccc(NS(=O)(=O)c3c(F)cccc3F)c2F)c(-c2ccnc(N)n2)s1 [Dabrafenib] + O=C(c1cc(Cc2n[nH]c(=O)c3ccccc23)ccc1F)N1CCN(C(=O)C2CC2)CC1 [Olaparib] (partner 8 µM)
Method in brief: as §1

VX-702 + Pictilisib = compound: NC(=O)c1ccc(N(C(N)=O)c2c(F)cccc2F)nc1-c1ccc(F)cc1F [VX-702] + CS(=O)(=O)N1CCN(Cc2cc3nc(-c4cccc5[nH]ncc45)nc(N4CCOCC4)c3s2)CC1 [Pictilisib] (partner 1 µM)
Method in brief: as §1

VX-702 + AZD7762 = compound: NC(=O)c1ccc(N(C(N)=O)c2c(F)cccc2F)nc1-c1ccc(F)cc1F [VX-702] + NC(=O)Nc1cc(-c2cccc(F)c2)sc1C(=O)N[C@H]1CCCNC1 [AZD7762] (partner 0.2 µM)
Method in brief: as §1

Cell Line | relative viability (Dabrafenib + Luminespib; first compound 0.003 µM) | relative viability (Dabrafenib + Luminespib; first compound 0.009487 µM) | relative viability (Dabrafenib + Luminespib; first compound 0.03 µM) | relative viability (Dabrafenib + Luminespib; first compound 0.09487 µM) | relative viability (Dabrafenib + Luminespib; first compound 0.3 µM) | relative viability (Dabrafenib + Olaparib; first compound 0.003 µM) | relative viability (Dabrafenib + Olaparib; first compound 0.009487 µM) | relative viability (Dabrafenib + Olaparib; first compound 0.03 µM) | relative viability (Dabrafenib + Olaparib; first compound 0.09487 µM) | relative viability (Dabrafenib + Olaparib; first compound 0.3 µM) | relative viability (VX-702 + Pictilisib; first compound 0.02 µM) | relative viability (VX-702 + Pictilisib; first compound 0.2 µM) | relative viability (VX-702 + Pictilisib; first compound 0.6325 µM) | relative viability (VX-702 + Pictilisib; first compound 2 µM) | relative viability (VX-702 + AZD7762; first compound 0.02 µM) | relative viability (VX-702 + AZD7762; first compound 0.2 µM) | relative viability (VX-702 + AZD7762; first compound 0.6325 µM) | relative viability (VX-702 + AZD7762; first compound 2 µM)
NCI-H1437 | 1.15 | 1.13 | 1.17 | 1.17 | 1.14 | 0.651 | 0.62 | 0.643 | 0.592 | 0.618 | 0.499 | 0.428 | 0.446 | 0.53 | 1.06 | 1.16 | 1.23 | 1.16
CAL-12T | 0.362 | 0.517 | 0.408 | 0.445 | 0.32 | 0.657 | 0.685 | 0.671 | 0.574 | 0.76 | 0.482 | 0.185 | 0.536 | 0.534 | 0.517 | 0.644 | 0.58 | 0.625
NCI-H1651 | 0.65 | 0.87 | 0.789 | 0.831 | 0.608 | 0.177 | 0.186 | 0.176 | 0.147 | 0.165 | 0.649 | 0.645 | 0.668 | 0.57 | 0.474 | 0.429 | 0.468 | 0.455
RERF-LC-KJ | 1.31 | 1.3 | 1.26 | 1.31 | 1.25 | 0.907 | 1 | 0.895 | 0.774 | 0.932 | 0.562 | 0.435 | 0.625 | 0.601 | 1.25 | 0.963 | 1.11 | 1.09
EKVX | 0.996 | 1.03 | 0.852 | 0.819 | 0.897 |  | 0.763 | 0.766 | 0.641 | 0.966 | 0.408 | 0.351 | 0.35 | 0.358 | 0.726 | 0.673 | 0.407 | 0.776
EMC-BAC-2 | 1.16 | 1.23 | 1 | 1.13 | 1.28 |  | 0.444 | 0.433 | 0.336 | 0.388 | 0.547 | 0.555 | 0.508 | 0.432 | 1.11 | 1.08 | 1.16 | 1.08
PC-3 [JPC-3] | 0.782 | 0.649 | 0.655 | 0.736 | 0.696 |  | 1.24 | 1.18 | 1.07 | 1.24 | 0.806 | 0.737 | 0.884 | 0.388 | 0.797 | 0.853 | 0.894 | 0.84
NCI-H647 |  | 0.282 | 0.138 | 0.19 | 0.217 | 0.661 | 0.558 | 0.449 | 0.557 | 0.607 | 0.479 | 0.432 | 0.461 | 0.644 | 0.461 | 0.386 | 0.494 | 0.567
NCI-H1666 | 0.988 | 0.995 | 1.04 | 0.997 | 1.11 | 0.783 | 0.753 | 0.776 | 0.746 | 0.799 | 0.513 | 0.439 | 0.454 | 0.263 | 0.925 | 0.837 | 0.922 | 0.693
NCI-H3122 | 0.0822 | 0.0926 | 0.0643 | 0.131 | 0.0575 | 0.631 | 0.605 | 0.647 | 0.508 | 0.562 | 0.572 | 0.59 | 0.578 | 0.589 | 1.07 | 1.05 | 1.03 | 1.01
HCC-44 | 1.12 | 1.01 | 1.17 | 0.98 | 0.861 | 0.952 | 1.03 | 1.08 | 1 | 0.956 | 0.726 | 0.552 | 0.479 | 0.522 | 1.05 | 1.03 | 1.06 | 1.04
NCI-H1915 | 0.981 | 0.706 | 0.61 | 0.523 | 0.62 | 0.276 | 0.233 | 0.214 | 0.215 | 0.268 | 1.14 | 0.848 | 0.949 | 1.1 | 0.697 | 0.728 | 0.712 | 0.718
NCI-H358 |  | 0.396 | 0.35 |  | 0.237 | 0.647 | 0.697 | 0.546 | 0.538 | 0.406 | 0.352 | 0.343 | 0.301 | 0.323 | 0.542 | 0.461 | 0.45 | 0.572
NCI-H1395 | 0.663 | 0.755 | 0.661 | 0.657 | 0.567 |  | 0.497 | 0.473 | 0.456 | 0.495 | 0.572 | 0.595 | 0.607 | 0.662 | 0.419 | 0.427 | 0.411 | 0.408
NCI-H2126 | 0.964 | 0.878 | 0.965 | 0.936 | 0.913 | 0.906 | 0.884 | 0.871 | 0.878 | 0.946 | 0.502 | 0.487 | 0.459 | 0.448 | 0.995 | 0.979 | 1.02 | 1.05
